{
  "source": "patent US20080103158A1",
  "about": "“METHODS FOR TREATING DELAYING THE PROGRESSION OF ALZHEIMER'S DISEASE WITH HETEROCYCLIC COMPOUNDS” (ZENYAKU KOGYO KABUSHIKI KAISHA, priority 2006, published 2008)",
  "data": [
    {"values": [
      {"compound": "O=C1N=C2C=CC=CN2C12Cc1ccc(C(F)(F)F)cc1C2", "note": "(stereo not shown) [Compound 64, spiro[imidazo[1,2-a]pyridin-2(3H)-one-3,2′-(5′-trifluoromethylindan)]]", "melting point": "176.5 to 179.5 °C"},
      {"compound": "O=C1N=C2SC=CN2C1(Cc1ccccc1)Cc1ccccc1", "note": "[Compound 44, 5,5-dibenzylimidazo[2,1-b]thiazol-6(5H)-one]", "melting point": "> 300 °C"},
      {"compound": "O=C1N=C2C=CC=CN2C12Cc1ccc(I)cc1C2", "note": "(stereo not shown) [Compound 58, spiro[imidazo[1,2-a]pyridin-2(3H)-one-3,2′-(5′-iodoindan)]]", "melting point": "167 to 171 °C"},
      {"compound": "CC(c1ccccc1)C1(C(C)c2ccccc2)C(=O)N=C2C(OCc3ccccc3)=CC=CN21", "note": "(stereo not shown) [Compound 8, 8-benzyloxy-3,3-bis(1-phenylethyl)imidazo[1,2-a]pyridin-2(3H)-one]", "melting point": "234 to 235 °C"},
      {"compound": "O=C1N=C2C(NCc3ccccc3)=CC=CN2C1(Cc1ccccc1)Cc1ccccc1", "note": "[Compound 37, 3,3-dibenzyl-8-benzylaminoimidazo[1,2-a]pyridin-2(3H)-one]", "melting point": "250 °C"},
      {"compound": "O=C1N=C2CCCCN2C12Cc1ccccc1C2", "note": "[Compound 77, spiro[5,6,7,8-tetrahydroimidazo[1,2-a]pyridin-2(3H)-one-3,2′-indan]]", "melting point": "276.5 °C (dec.)"},
      {"compound": "CC(C)OC1=CC=CN2C1=NC(=O)C2(Cc1ccccc1)Cc1ccccc1", "note": "[Compound 2, 3,3-dibenzyl-8-isopropoxyimidazo[1,2-a]pyridin-2(3H)-one]", "melting point": "247 to 248 °C"},
      {"compound": "N#Cc1ccc(CC2(Cc3ccc(C#N)cc3)C(=O)N=C3SC=CN32)cc1", "note": "[Compound 47, 5,5-bis(4-cyanobenzyl)imidazo[2,1-b]thiazol-6(5H)-one]", "melting point": "264 to 267 °C"},
      {"compound": "CC1=CN2C(=NC(=O)C2(Cc2ccccc2)Cc2ccccc2)S1", "note": "[Compound 48, 5,5-dibenzyl-2-methylimidazo[2,1-b]thiazol-6(5H)-one]", "melting point": "> 300 °C"},
      {"compound": "CC1=CC=CN2C1=NC(=O)C2(Cc1ccncc1)Cc1ccncc1", "note": "[Compound 16, 8-methyl-3,3-bis(4-pyridylmethyl)imidazo[1,2-a]pyridin-2(3H)-one]", "melting point": "228 to 230 °C"},
      {"compound": "O=C1N=C2C(OCC3CC3)=CC=CN2C1(Cc1ccccc1)Cc1ccccc1", "note": "[Compound 4, 3,3-dibenzyl-8-cyclopropylmethyloxy-imidazo[1,2-a]pyridin-2(3H)-one]", "melting point": "236 to 237 °C"},
      {"compound": "COc1ccc2c(c1)CC1(C2)C(=O)N=C2C=CC=CN21", "note": "(stereo not shown) [Compound 57, spiro[imidazo[1,2-a]pyridin-2(3H)-one-3,2′-(5′-methoxyindan)]]", "melting point": "150 to 152 °C"},
      {"compound": "O=C1N=C2C=CC(Cl)=CN2C1(Cc1ccccc1)Cc1ccccc1", "note": "[Compound 5, 3,3-dibenzyl-6-chloroimidazo[1,2-a]pyridin-2(3H)-one]", "melting point": "246 to 248 °C"},
      {"compound": "O=C1N=C2C=CC=CN2C1Cc1ccccc1", "note": "(stereo not shown) [Compound 54, 3-benzylimidazo[1,2-a]pyridin-2(3H)-one]", "melting point": "182 °C (dec.)"},
      {"compound": "CC(=O)NC1=CC=CN2C1=NC(=O)C2(Cc1ccccc1)Cc1ccccc1", "note": "[Compound 31, 8-acetylamino-3,3-dibenzylimidazo[1,2-a]pyridin-2(3H)-one]", "melting point": "235 to 237 °C"},
      {"compound": "CC1(C)C(=O)N=C2C=CC=CN21", "note": "[Compound 33, 3,3-dimethylimidazo[1,2-a]pyridin-2(3H)-one]", "melting point": "200 to 202 °C"},
      {"compound": "O=C1N=C2C=CC=CN2C12Cc1cccc(F)c1C2", "note": "(stereo not shown) [Compound 56, spiro[imidazo[1,2-a]pyridin-2(3H)-one-3,2′-(4′-fluoroindan)]]", "melting point": "148 °C (dec.)"},
      {"compound": "COc1ccc(CC2(Cc3ccc(OC)cc3)C(=O)N=C3C=CC=CN32)cc1", "note": "[Compound 20, 3,3-bis(4-methoxybenzyl)imidazo[1,2-a]pyridin-2(3H)-one]", "melting point": "248 to 251 °C"},
      {"compound": "COC1=CC=CN2C1=NC(=O)C2(Cc1ccccc1)Cc1ccccc1", "note": "[Compound 3, 3,3-dibenzyl-8-methoxyimidazo[1,2-a]pyridin-2(3H)-one]", "melting point": "274 to 275 °C"},
      {"compound": "O=C1N=C2C=CC=CN2C1(Cc1cccc(Cl)c1)Cc1cccc(Cl)c1", "note": "[Compound 19, 3,3-bis(3-chlorobenzyl)imidazo[1,2-a]pyridin-2(3H)-one]", "melting point": "271 to 272 °C"},
      {"compound": "C=CCC1(CC=C)C(=O)N=C2c3ccccc3C=CN21", "note": "[Compound 68, 3,3-diallylimidazo[2,1-a]isoquinolin-2(3H)-one]", "melting point": "108 to 110 °C"},
      {"compound": "O=C1N=C2C3=C(C=CN2C12CCCC2)CCCC3", "note": "[Compound 74, spiro[7,8,9,10-tetrahydroimidazo[2,1-a]isoquinolin-2(3H)-one-3,1′-cyclopentane]]", "melting point": "270.5 °C (dec.)"},
      {"compound": "O=C1N=C2C=CC=CN2C1(Cc1ccc(Cl)cc1)Cc1ccc(Cl)cc1", "note": "[Compound 78, 3,3-bis(4-chlorobenzyl)imidazo[1,2-a]pyridin-2(3H)-one]", "melting point": "293 to 296 °C"},
      {"compound": "O=C1N=C2CCCCN2C1(C1CCCCC1)C1CCCCC1", "note": "[Compound 72, 3,3-dicyclohexyl-5,6,7,8-tetrahydroimidazo[1,2-a]pyridin-2(3H)-one]", "melting point": "218 to 220 °C"},
      {"compound": "N#Cc1ccc(CC2(Cc3ccc(C#N)cc3)C(=O)N=C3C=CC=CN32)cc1", "note": "[Compound 22, 3,3-bis(4-cyanobenzyl)imidazo[1,2-a]pyridin-2(3H)-one]", "melting point": "294 °C (dec.)"},
      {"compound": "Cc1ccc(CC2(Cc3ccc(C)cc3)C(=O)N=C3SC=CN32)cc1", "note": "[Compound 46, 5,5-bis(4-methylbenzyl)imidazo[2,1-b]thiazol-6(5H)-one]", "melting point": "> 300 °C"},
      {"compound": "O=C1N=C2C(OCC3CC3)=CC=CN2C12CC=CC2", "note": "[Compound 83, spiro[8-cyclopropylmethyloxyimidazo[1,2-a]pyridin-2(3H)-one-3,4′-(1′-cyclopentene)]]", "melting point": "134 to 137 °C"},
      {"compound": "O=C1N=C2SCCN2C1(Cc1ccccc1)Cc1ccccc1", "note": "[Compound 51, 5,5-dibenzyl-2,3-dihydroimidazo[2,1-b]thiazol-6(5H)-one]", "melting point": "233 to 236 °C"},
      {"compound": "O=C1N=C2c3ccccc3C=CN2C12Cc1cc3nsnc3cc1C2", "note": "[Compound 62, spiro[imidazo[2,1-a]isoquinolin-2(3H)-one-3,2′-((1,2,5-thiadiazo)[4,5-c]indan)]]", "melting point": "271.5 °C (dec.)"},
      {"compound": "O=C1N=C2C=CC=CN2C1(Cc1ccc([N+](=O)[O-])cc1)Cc1ccc([N+](=O)[O-])cc1", "melting point": "> 300 °C"},
      {"compound": "COC1=CC=CN2C1=NC(=O)C21CC=CC1", "note": "[Compound 82, spiro[8-methoxyimidazo[1,2-a]pyridin-2(3H)-one-3,4′-(1′-cyclopentene)]]", "melting point": "200 to 202 °C"},
      {"compound": "O=C1N=C2C=CC=CN2C1(Cc1cccs1)Cc1cccs1", "note": "[Compound 30, 3,3-bis(2-thienylmethyl)imidazo[1,2-a]pyridin-2(3H)-one]", "melting point": "289.5 °C (dec.)"},
      {"compound": "CCCCC1(CCCC)C(=O)N=C2CCCCN21", "note": "[Compound 73, 3,3-dibutyl-5,6,7,8-tetrahydroimidazo[1,2-a]pyridin-2(3H)-one]", "melting point": "35 to 40 °C"},
      {"compound": "O=C1N=C2C=CC=CN2C1(C1C=CCCC1)C1C=CCCC1", "note": "(stereo not shown) [Compound 67, 3,3-bis(2-cyclohexenyl)imidazo[1,2-a]pyridin-2(3H)-one]", "melting point": "245 to 247 °C"},
      {"compound": "CCCCC1(CCCC)C(=O)N=C2C=CC=CN21", "note": "[Compound 34, 3,3-dibutylimidazo[1,2-a]pyridin-2(3H)-one]", "melting point": "100.5 to 102 °C"},
      {"compound": "O=C1N=C2c3ccccc3C=CN2C12Cc1ccccc1C2", "note": "[Compound 60, spiro[imidazo[2,1-a]isoquinolin-2(3H)-one-3,2′-indan]]", "melting point": "201 to 203 °C"},
      {"compound": "O=C1N=C2C=CC=CN2C12Cc1cc3nsnc3cc1C2", "note": "[Compound 61, spiro[imidazo[1,2-a]pyridin-2(3H)-one-3,2′-((1,2,5-thiadiazo)[4,5-c]indan)]]", "melting point": "86 to 88 °C"},
      {"compound": "O=C1N=C2N=CC=CN2C1(Cc1cccs1)Cc1cccs1", "note": "[Compound 50, 3,3-bis(2-thienylmethyl)imidazo[1,2-a]pyrimidin-2(3H)-one]", "melting point": "192 °C (dec.)"},
      {"compound": "C=CCC1(CC=C)C(=O)N=C2C(OCC3CC3)=CC=CN21", "note": "[Compound 79, 8-cyclopropylmethyloxy-3,3-diallylimidazo[1,2-a]pyridin-2(3H)-one]", "melting point": "139 to 142 °C"},
      {"compound": "O=C1N=C2C=CC=CN2C1(Cc1ccco1)Cc1ccco1", "note": "[Compound 32, 3,3-bis(2-furylmethyl)imidazo[1,2-a]pyridin-2(3H)-one]", "melting point": "205 °C (dec.)"},
      {"compound": "O=C1N=C2C=CC=CN2C12Cc1cccc3cccc(c13)C2", "note": "[Compound 27, spiro[imidazo[1,2-a]pyridin-2(3H)-one-3,2′-[2,3]dihydrophenarene]]", "melting point": "262 °C (dec.)"},
      {"compound": "CN(C)c1ccc(CC2(Cc3ccc(N(C)C)cc3)C(=O)N=C3C=CC=CN32)cc1", "note": "[Compound 18, 3,3-bis(4-dimethylaminobenzyl)imidazo[1,2-a]pyridin-2(3H)-one]", "melting point": "> 300 °C"},
      {"compound": "O=C1N=C2C=CC=CN2C1(Cc1ccc(-c2ccccc2)cc1)Cc1ccc(-c2ccccc2)cc1", "note": "[Compound 21, 3,3-bis(4-biphenylmethyl)imidazo[1,2-a]pyridin-2(3H)-one]", "melting point": "> 300 °C"},
      {"compound": "O=C1N=C2C(OCc3ccccc3)=CC=CN2C1(Cc1ccccc1)Cc1ccccc1", "note": "[Compound 7, 3,3-dibenzyl-8-benzyloxyimidazo[1,2-a]pyridin-2(3H)-one]", "melting point": "240 to 241 °C"},
      {"compound": "O=C1N=C2c3ccccc3C=CN2C12CCCC2", "note": "[Compound 75, spiro[imidazo[2,1-a]isoquinolin-2(3H)-one-3,1′-cyclopentane]]", "melting point": "164.5 to 167.5 °C"},
      {"compound": "NC1=CC=CN2C1=NC(=O)C2(Cc1ccccc1)Cc1ccccc1", "note": "[Compound 39, 8-amino-3,3-dibenzylimidazo[1,2-a]pyridin-2(3H)-one]", "melting point": "283 to 285 °C"},
      {"compound": "COC(=O)c1ccc(CC2(Cc3ccc(C(=O)OC)cc3)C(=O)N=C3C=CC=CN32)cc1", "note": "[Compound 40, 3,3-bis(4-methoxycarbonylbenzyl)imidazo[1,2-a]pyridin-2(3H)-one]", "melting point": "289 to 290 °C"},
      {"compound": "CCCC1(CCC)C(=O)N=C2C=CC=CN21", "note": "[Compound 29, 3,3-dipropylimidazo[1,2-a]pyridin-2(3H)-one]", "melting point": "73 to 75 °C"},
      {"compound": "O=C1N=C2C=CC=CN2C12Cc1cc3ccccc3cc1C2", "note": "[Compound 53, spiro[imidazo[1,2-a]pyridin-2(3H)-one-3,2′-benzo[f]indan]]", "melting point": "214 °C (dec.)"}
    ]}
  ]
}
